Assay results reported in patent US7135501B2, “Clusianon isomers and use thereof” (priority 2001, dated 2006).

How the values were obtained:
[1] = test system: HCT8 WT bowel cancer cells; experiment: Cell cycle analysis (BrdU/PI flow cytometry); type: cell-based, human; details: IC50 concentration, 24 hours
Method: Flow cytometric investigations by an adapted method of Tsugita M. et al. are used for the analysis.
Exponentially growing HCT8 WT bowel cancer cells are treated with substance (I) with the determined IC50 concentration for 24 hours, and then the cells are incubated with BrdU. The cells fixed with methanol are subjected to a treatment with a detergent (Triton X-100/HCl) in order to denature the DNA strands. After incubation with the fluorescence-labeled antibody (anti-BrdU mAb, FITC-labeled), the second fluorescent dye (PI, propidium iodide) is added.
The DNA content (propidium iodide fluorescence) and the amount of BrdU taken up (FITC fluorescence) are determined using a Coulter flow cytometer (Coulter EPICS XL). Exemplary results are depicted in FIGS. 3a and 3b.
FIGS. 3a and 3b show BrdU and PI uptakes into the DNA of HCT8 WT cells, untreated (control, […]) and treated with substance (I) (IC50, 24 hours, […]). The depicted results are representative of n=3 independent experiments.

topoisomerase I = biological target: T1, topoisomerase I (Homo sapiens, UniProt P11387); experiment: Topo I unwinding assay; type: biochemical; details: for concentration required for topoisomerase I inhibition as multiple of the IC50 of tumor cell growth: in vitro
T1 construct: 160 ng of cell nucleus extract with the topoisomerase I present therein; endogenous in cells
T1 sequence (P11387 1-765): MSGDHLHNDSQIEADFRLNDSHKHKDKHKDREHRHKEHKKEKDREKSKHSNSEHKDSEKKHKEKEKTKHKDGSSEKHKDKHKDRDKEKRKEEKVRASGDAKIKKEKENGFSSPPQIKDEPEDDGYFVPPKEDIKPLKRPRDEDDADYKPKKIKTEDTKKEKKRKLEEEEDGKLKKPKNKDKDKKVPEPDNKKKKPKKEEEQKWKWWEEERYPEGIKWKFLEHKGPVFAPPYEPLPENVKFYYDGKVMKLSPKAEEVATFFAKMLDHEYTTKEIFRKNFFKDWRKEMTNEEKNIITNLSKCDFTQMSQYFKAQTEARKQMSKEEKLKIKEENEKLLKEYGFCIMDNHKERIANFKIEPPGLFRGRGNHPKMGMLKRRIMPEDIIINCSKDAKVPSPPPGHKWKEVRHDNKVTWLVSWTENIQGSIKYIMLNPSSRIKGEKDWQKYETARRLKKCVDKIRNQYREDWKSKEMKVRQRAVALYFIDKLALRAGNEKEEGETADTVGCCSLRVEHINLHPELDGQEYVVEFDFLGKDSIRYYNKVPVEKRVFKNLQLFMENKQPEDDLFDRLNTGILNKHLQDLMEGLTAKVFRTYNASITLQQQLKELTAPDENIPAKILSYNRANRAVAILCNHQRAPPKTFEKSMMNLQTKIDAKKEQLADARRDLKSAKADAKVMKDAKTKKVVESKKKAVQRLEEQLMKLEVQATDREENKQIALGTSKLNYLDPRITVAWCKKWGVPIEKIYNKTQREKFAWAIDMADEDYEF
Excerpt: The assay is based on an ATP-independent unwinding of twisted pBR322 plasmid DNA dimers by topoisomerase I. The two different topological forms of the plasmid DNA, the twisted form and unwound, relaxed form, are separated in this investigation by means of an agarose gel. The enzyme topoisomerase I is obtained for this purpose from cell nucleus extracts of the tumor cell lines.
Cell nucleus extracts are obtained by the method of Sullivan with the modifications of Danks et al.

[2] = test system: tumor cell lines, resistant subclones and non-tumor cell lines; experiment: SRB assay, comparison across the cell line panel; type: cell-based
Method: Six unambiguously characterized tumor cell lines of human origin (native cell lines and those converted into resistant subclones) and two non-tumor cell lines are used for further investigations (table 2).
The sensitivity of the cell lines to the substance (I) is determined in a so-called sulforhodamine B (SRB) assay. This is a robust and highly reproducible standard method which is also established for example at the NCI (National Cancer Institute, USA) (Skehan et al. 1990).
The concentration of substance (I) which inhibits cell growth by 50% (IC50, determined from semilogarithmic dose versus effect plots) are indicated.

HT29 WT = experiment: DNA double-strand breaks, HT29 WT; type: cell-based, human
Method: (§1) DNA isolated after treatment of the cells for various times with substance (I) is for this purpose analyzed by gel electrophoresis.
(§2) Determination of the DNA double-strand breaks is performed on ^14C-labeled DNA. For this purpose, [^14C]d-thymidine-labeled cells are treated with various concentrations of substance (I). The DNA is isolated by an adapted method of Chia Chiao et al.
(§3) The DNA fractionated by gel electrophoresis is subsequently stained with ethidium bromide.
(§4) On a transilluminator (302 nm), the intact DNA which has not migrated in the electric field is separated from the fragmented DNA, which has thus migrated into the gel, by extraction. The isolated gel and DNA fragments are liquefied at +80° C. in the presence of hydrochloric acid. After addition of a scintillator it is possible to determine the radioactivity using a liquid scintillation meter (TPI-CARB 2100RT). The measured radioactivity is indicated in […] (cpm).

H460 WT cells = experiment: DNA double-strand breaks in [14C]d-thymidine-labeled cells, H460 WT; type: cell-based, human; details: up to 10 times the IC50 concentration, 6 hours
Method: as §1, §2, §3, §4
The results represent averages and their standard deviation from n=3 independent experiments.

human telomerase = biological target: T2, human telomerase (Homo sapiens, UniProt O14746); experiment: Telomeric Repeat Amplification Assay (TRAP) ELISA; type: biochemical; details: at 50 μg/ml; telomerase from HCT8 WT colon carcinoma cells
T2 construct: human telomerase obtained from cells of a colon carcinoma (HCT8 WT); endogenous in cells; host or cells: HCT8 WT colon carcinoma cells
Method: The effect of substance (I) on human telomerase is determined by carrying out the so-called Telomeric Repeat Amplification Assay (TRAP) ELISA, based on the method of N. W. Kim et al.
This method is based on use of the polymerase chain reaction (PCR). This entails, in a first step, a number of (GGTTAG) motifs being attached by means of the telomerase activity to the 3′ end of a biotin-labeled oligonucleotide (TS=telomerase substrate). In a second step, the products extended in this way are amplified by the PCR technique using TS and RP (R=reverse) primers. In this way, a “ladder” of products in increments of 6 bases (initial size=50 nucleo-tides) is generated. During the amplification, DNP-labeled dCTP is incorporated into the PCR products. Detection and quantification of the synthesized telomerase products using a sandwich ELISA method are a measure of the telomerase enzymatic activity.
The telomerase products carry the biotin-labeled TS primers and bind to the surface of microtiter plates previously coated with streptavidin. An anti-DIG antibody conjugated to POD binds to the […] nucleotides incorporated during the amplification. After addition of the substrate TMB, the telomerase activity is visualized by […] via the onset of the color reaction by the enzyme POD. In this case, the measured absorption is directly proportional to the telomerase activity. […]

ERK1/2 protein = experiment: Western blot analysis of ERK1/2 phosphorylation; type: cell-based, human; details: HCT8 WT, detectable even at IC50 dose
Excerpt: Phosphorylation of certain signal transduction pathways plays an essential role in the regulation of cell growth and gene expression. The protein ERK1/2 (MAP kinase) belongs to the MAP kinase signal transduction pathway.
Treatment of human colon carcinoma cells (HCT8 WT) with substance (I) leads to phosphorylation of this protein, which is detected in a Western blot analysis (FIG. 8).

HCT8 WT cells = experiment: Coincubation cytotoxicity experiment with a specific ERK1/2 inhibitor; type: cell-based, human; details: 24 hours, different dosage ratios
Method: HCT8 WT cells were coincubated.

DNA polymerase = DNA polymerase (Thermus aquaticus, UniProt P19821); experiment: Preliminary experiment with the TSR8 template; type: biochemical; details: maximum concentration 50 μg/ml
Method: In order to ensure the effect of substance (I) on telomerase, an effect of substance (I) on DNA polymerase must be ruled out. In a preliminary experiment with TSR8 as internal control, the effect of substance (I) at various concentration levels was ruled out.
Amplification of the TSR8 template depends only on DNA polymerase. Every inhibitor of this enzyme can be detected using the substrate.
The experiment is carried out in triplicates.

DNA polymerase, sequence (P19821 whole entry): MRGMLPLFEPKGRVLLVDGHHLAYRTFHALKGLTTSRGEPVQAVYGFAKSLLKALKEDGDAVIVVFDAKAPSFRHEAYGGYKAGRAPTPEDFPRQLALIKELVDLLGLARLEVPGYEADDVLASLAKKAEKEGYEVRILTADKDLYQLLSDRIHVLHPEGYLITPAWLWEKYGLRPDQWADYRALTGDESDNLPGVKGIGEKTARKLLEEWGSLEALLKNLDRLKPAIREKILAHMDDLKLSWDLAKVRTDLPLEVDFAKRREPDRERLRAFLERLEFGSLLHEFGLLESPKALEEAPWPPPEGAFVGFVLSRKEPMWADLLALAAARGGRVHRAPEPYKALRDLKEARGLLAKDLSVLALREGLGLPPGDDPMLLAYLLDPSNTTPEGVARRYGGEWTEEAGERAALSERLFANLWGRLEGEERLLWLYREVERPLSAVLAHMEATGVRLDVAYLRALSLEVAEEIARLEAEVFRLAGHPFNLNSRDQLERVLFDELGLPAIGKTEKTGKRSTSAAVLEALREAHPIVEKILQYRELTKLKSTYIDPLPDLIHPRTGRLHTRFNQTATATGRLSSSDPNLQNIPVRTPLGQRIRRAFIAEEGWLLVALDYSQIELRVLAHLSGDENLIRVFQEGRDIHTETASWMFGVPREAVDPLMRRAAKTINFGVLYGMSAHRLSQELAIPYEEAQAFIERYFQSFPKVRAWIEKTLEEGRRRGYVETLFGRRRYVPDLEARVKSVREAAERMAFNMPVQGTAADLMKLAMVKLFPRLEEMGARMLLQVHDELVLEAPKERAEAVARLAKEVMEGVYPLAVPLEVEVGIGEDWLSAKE
T2 sequence (O14746 whole entry): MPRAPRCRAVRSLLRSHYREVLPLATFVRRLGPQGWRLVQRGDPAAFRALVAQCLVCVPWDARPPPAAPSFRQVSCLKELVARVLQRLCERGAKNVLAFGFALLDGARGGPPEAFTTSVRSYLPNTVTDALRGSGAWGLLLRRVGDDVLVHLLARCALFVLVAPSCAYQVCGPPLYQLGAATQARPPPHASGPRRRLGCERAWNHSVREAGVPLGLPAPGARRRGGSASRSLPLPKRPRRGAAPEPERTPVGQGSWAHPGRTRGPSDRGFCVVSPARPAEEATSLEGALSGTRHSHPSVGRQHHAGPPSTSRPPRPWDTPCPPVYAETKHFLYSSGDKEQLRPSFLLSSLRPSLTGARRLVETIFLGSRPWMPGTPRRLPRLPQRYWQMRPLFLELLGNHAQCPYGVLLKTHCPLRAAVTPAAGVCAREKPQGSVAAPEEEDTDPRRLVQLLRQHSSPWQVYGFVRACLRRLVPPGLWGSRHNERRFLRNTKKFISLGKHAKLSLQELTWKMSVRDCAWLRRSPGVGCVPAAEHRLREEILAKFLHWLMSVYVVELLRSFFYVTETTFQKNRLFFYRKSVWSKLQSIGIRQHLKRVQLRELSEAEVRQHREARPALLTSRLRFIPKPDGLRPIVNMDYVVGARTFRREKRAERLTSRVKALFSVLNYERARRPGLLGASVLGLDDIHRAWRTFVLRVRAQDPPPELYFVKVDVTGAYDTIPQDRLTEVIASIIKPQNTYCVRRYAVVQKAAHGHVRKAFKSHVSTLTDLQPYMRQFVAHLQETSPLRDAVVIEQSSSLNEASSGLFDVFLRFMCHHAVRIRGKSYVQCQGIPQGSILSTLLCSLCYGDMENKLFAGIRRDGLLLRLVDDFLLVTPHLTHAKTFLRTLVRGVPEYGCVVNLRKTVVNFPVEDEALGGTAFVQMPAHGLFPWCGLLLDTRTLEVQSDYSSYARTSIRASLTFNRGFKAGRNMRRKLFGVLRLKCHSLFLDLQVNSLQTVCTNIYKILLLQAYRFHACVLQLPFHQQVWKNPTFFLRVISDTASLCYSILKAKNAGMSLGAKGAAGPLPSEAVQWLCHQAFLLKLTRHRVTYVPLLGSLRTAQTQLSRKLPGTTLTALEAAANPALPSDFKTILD

SMILES	effect on cell cycle (BrdU uptake) [1]	inhibition at 100 µg/mL (topoisomerase I; at 100 μg/ml, 160 ng cell nucleus extract, pBR322 plasmid DNA)	concentration required for topoisomerase I inhibition as multiple of the IC50 of tumor cell growth (topoisomerase I)	cytotoxicity for the non-tumor cell lines compared with tumor cell lines ([2]; fibroblasts of the 3T3 and MCR 5 lines)	cross-resistance to the indicated cytostatics ([2]; resistant subclones versus native cell lines)	induction of DNA double-strand breaks (HT29 WT)	induction of DNA double-strand breaks (H460 WT cells)	inhibition of human telomerase (human telomerase)	phosphorylation of the ERK1/2 protein (ERK1/2 protein)	cytotoxicity on coincubation with a specific ERK1/2 inhibitor (MAP kinase inhibitor) (HCT8 WT cells)	inhibition of Tag polymerase (TSR8 template amplification) (DNA polymerase)
CC(C)=CCC1=C(O)[C@]2(C(=O)c3ccccc3)C(=O)[C@@](CC=C(C)C)(CC(CC=C(C)C)C2(C)C)C1=O (stereo partly drawn) [Substance (I), 1-Benzoyl-8,8-dimethyl-2-hydroxy-3,5,7-tris-(3-methyl-2-butenyl)bicyclo[3.3.1]non-2-ene-4,9-dione]	inhibition of the synthesis phase	100%	20 times	considerably less	no cross-resistance	substantial amounts of double-strand breaks	significant amounts of double-strand breaks	Complete inhibition	dose-dependent phosphorylation	pronounced synergism	does not lead to a significant inhibition
CC[C@@]1(O)C(=O)OCc2c1cc1n(c2=O)Cc2cc3c(CN(C)C)c(O)ccc3nc2-1 [topotecan, reference compound]	–	–	1000 times	–	–	–	–	–	–	–	–
